Data published in US12486219B2, “Modified tetracyclines for treatment of alcohol use disorder, pain and other disorders involving potential inflammatory processes” (Texas Tech University System, priority 2018, dated 2025).

Columns and labels:
[1] = tested on: binge ethanol consumption; experiment: Binge ethanol consumption, minocycline derivatives (FIGS. 8C to 15C); assay type: in vivo; settings: figure legend only, values not given
DBA/2J mice = experiment: Alcohol withdrawal, Handling Induced Convulsion scores; assay type: in vivo
Protocol: Female and male DBA/2J mice were tested with CMM1, 100 mg/kg per p.o., at 2 hrs following 4 g/kg 20% ethanol in saline. Shown are the Handling Induced Convulsion scores, background subtracted and summed over 24 hours. […] Mean±SEM, n=5/group.

[2] = tested on: Drinking In the Dark (DID) murine model of binge drinking; experiment: Drinking In the Dark (DID) murine model of binge drinking; assay type: in vivo, mice; settings: 0, 25, 35, 50 and 100 mg/kg p.o. vs control; n=4/group; p=0.004; dose-dependent
Protocol: Using a standard Drinking In the Dark (DID) murine model of binge drinking, we tested the effect of 0, 25, 35, 50 and 100 mg/kg per os (p.o.) acetylated minocycline (derivative Y, or CMM1) vs control.

E. coli = E. coli zone of inhibition (ZOI) and recovered colony forming units (CFU) per disk; assay type: cell-based; settings: dose response
Protocol: Minocycline and two acetylated derivatives, CMM1 (B) and CMM2 (Y), were tested in a dose response manner for A) zone of inhibition (ZOI) and B) recovered colony forming units (CFU) per disk.

AUD traits = settings: seven tetracyclines tested; cited from earlier work
[3] = cited from earlier work
DID ethanol consumption = DID ethanol consumption after "sterilization" of the GI microbiome; assay type: in vivo, mice; settings: ten-day ampicillin, neomycin, metronidazole, vancomycin; tigecycline 100 mg/kg i.p.; n=7
Protocol: A ten-day “sterilization” treatment with ampicillin, neomycin, metronidozale and vancomycin was used. Bedding was changed daily to avoid repopulation. DID was started on day 11 after one day of no metronidazole. Tigecycline was given at 100 mg/kg intraperitoneal (i.p.) n=7, mean±SEM.

DID consumption = DID consumption after intracerebroventricular (ICV) drug; assay type: in vivo, mice; settings: 3 ul of drug (9 mg/ml) icv 20 hrs prior to DID testing; n=9-11; p<0.01
Protocol: To test the hypothesis that tigecycline works at the level of the CNS, rather than the PNS, 3 ul of drug (9 mg/ml) was given icy 20 hrs prior to DID testing. n=9-11, mean±SEM, **p<0.01.

In the case of `CCCCOc1ccc(N(C)C)c2c1C(=O)C1=C(O)C3(O)C(=O)C(C(N)=O)=C(O)C(N(C)C)C3CC1C2` (stereo not shown) [Butyl Ether Minocycline, 10-Butoxy-4,7-bis-dimethylamino-3,12,12a-trihydroxy-1,11-dioxo-1,4,4a,5,5a,6,11,12a-octahydro-naphthacene-2-carboxylic acid amide], the binge ethanol consumption [1] is reported as “reduction of binge ethanol consumption”.

In the case of `CC(=O)NC(=O)c1c(OC(C)=O)c2c(c(N(C)C)c1OC(C)=O)CC1Cc3c(N(C)C)ccc(OC(C)=O)c3C(=O)C1=C2OC(C)=O` (stereo not shown) [CMM1], the “alcohol withdrawal symptoms (Handling Induced Convulsion scores summed over 24 hours)” value (DBA/2J mice; 100 mg/kg p.o. at 2 hrs following 4 g/kg 20% ethanol, female and male DBA/2J mice, n=5/group) is reported as “reduced alcohol withdrawal symptoms”, the “efficacy on withdrawal compared with minocycline” value (DBA/2J mice; 100 mg/kg p.o., DBA/2J mice) is reported as “more effective than the parent drug, minocycline” and the “efficacy on withdrawal, females vs males” value (DBA/2J mice; 100 mg/kg p.o., DBA/2J mice) is reported as “more effective in females”. For the same compound, the “ethanol consumption (DID)” value [2] was “significantly reduced drinking” and the “antibiotic activity (ZOI and CFU per disk)” value (E. coli) was “loss of antibiotic activity even at high doses”.

With `CC(=O)NC(=O)c1c(OC(C)=O)c2c(c(N(C)C)c1OC(C)=O)CC1Cc3c(N(C)C)ccc(OC(C)=O)c3C(=O)C1=C2O` (stereo not shown) [CMM2] the “antibiotic activity (ZOI and CFU per disk)” value (E. coli) was “loss of antibiotic activity even at high doses”.

With `CC(=O)NC(=O)c1c(O)cc2c(c1O)C(O)=C1C(=O)c3c(OC(C)=O)ccc(N(C)C)c3CC1C2` (stereo not shown) [De Methyl Diacetate Minocycline, Acetic acid 9-acetylcarbamoyl-4-dimethylamino-8,10,11-trihydroxy-12-oxo-5,5a,6,12-tetrahydro-naphthacen-1-yl ester] the binge ethanol consumption [1] was “reduction of binge ethanol consumption”.

In the case of `C[C@H]1c2cccc(O)c2C(=O)C2=C(O)[C@]3(O)C(=O)C(C(N)=O)=C(O)[C@@H](N(C)C)[C@@H]3[C@@H](O)[C@@H]21` [Doxycycline], the “efficacy against AUD traits” value (AUD traits) is listed as “effective”.

For `CCOc1ccc(N(C)C)c2c1C(=O)C1=C(O)C3(O)C(=O)C(C(N)=O)=C(O)C(N(C)C)C3CC1C2` (stereo not shown) [Ethyl Ether Minocycline, 4,7-Bis-dimethylamino-10-ethoxy-3,12,12a-trihydroxy-1,11-dioxo-1,4,4a,5,5a,6,11,12a-octahydro-naphthacene-2-carboxylic acid amide], the binge ethanol consumption [1] was “reduction of binge ethanol consumption”.

With `COc1ccc(N(C)C)c2c1C(=O)C1=C(O)C3(O)C(=O)C(C(N)=O)=C(O)C(N(C)C)C3CC1C2` (stereo not shown) [Methyl Ether Minocycline, 4,7-Bis-dimethylamino-3,12,12a-trihydroxy-10-methoxy-1,11-dioxo-1,4,4a,5,5a,6,11,12a-octahydro-naphthacene-2-carboxylic acid amide] the binge ethanol consumption [1] was “reduction of binge ethanol consumption”.

In the case of `COc1ccc(N(C)C)c2c1C(=O)C1=C(O)c3c(O)c(C(=O)NC(C)=O)c(O)c(N(C)C)c3CC1C2` (stereo not shown) [Methyl Ether N-Monoacetate Minocycline, 4,7-Bis-dimethylamino-1,3,12-trihydroxy-10-methoxy-11-oxo-5,5a,6,11-tetrahydro-naphthacene-2-carboxylic acid acetyl-amide], the binge ethanol consumption [1] is reported as “reduction of binge ethanol consumption”.

For `COc1ccc(N(C)C)c2c1C(=O)C1=C(O)c3c(c(N(C)C)c(OC(C)=O)c(C(=O)NC(C)=O)c3OC(C)=O)CC1C2` (stereo not shown) [Methyl Ether Tri Acetate Minocycline, Acetic acid 4-acetoxy-3-acetylcarbamoyl-1,10-bis-dimethylamino-5-hydroxy-7-methoxy-6-oxo-6,11,11a,12-tetrahydro-naphthacen-2-yl ester], the binge ethanol consumption [1] was “reduction of binge ethanol consumption”.

For `CN(C)c1ccc(O)c2c1CC1CC3C(N(C)C)C(O)=C(C(N)=O)C(=O)C3(O)C(O)=C1C2=O` (stereo not shown) [Minocycline, 4.7-Bis-dimcthylamino-3,10,12,12a-tctrahydroxy-1,11-dioxo-1,4.4a,5,5a,6,11,12 a-octahydro-naphthacene-2-carboxylic acid amide], the “efficacy against AUD traits” value (AUD traits) is listed as “effective”.

In the case of `CN(C)[C@@H]1C(O)=C(C(N)=O)C(=O)[C@@]2(O)C(O)=C3C(=O)c4c(O)cccc4[C@@](C)(O)[C@H]3[C@H](O)[C@@H]12` [Oxytetracycline], the LogD [3] is given as −4.25 and the LogP [3] is given as −1.5.

With `CC(=O)NC(=O)c1c(OC(C)=O)c2c(c(N(C)C)c1OC(C)=O)CC1Cc3c(N(C)C)ccc(OC(C)=O)c3C(=O)C1=C2OC(C)=O` (stereo not shown) [Penta Acetyl Minocycline, Acetic acid 3,10,12-triacetoxy-2-acetylcarbamoyl-4,7-bis-dimethylamino-11-oxo-5,5a,6,11-tetrahydro-naphthacen-1-yl ester] the binge ethanol consumption [1] was “reduction of binge ethanol consumption”.

In the case of `CCCOc1ccc(N(C)C)c2c1C(=O)C1=C(O)C3(O)C(=O)C(C(N)=O)=C(O)C(N(C)C)C3CC1C2` (stereo not shown) [Propyl Ether Minocycline, 4,7-Bis-dimethylamino-3,12,12a-trihydroxy-1,11-dioxo-10-propoxy-1,4,4a,5,5a,6,11,12a-octahydro-naphthacene-2-carboxylic acid amide], the binge ethanol consumption [1] is reported as “reduction of binge ethanol consumption”.

With `CC(=O)NC(=O)c1c(OC(C)=O)c2c(c(N(C)C)c1OC(C)=O)CC1Cc3c(N(C)C)ccc(OC(C)=O)c3C(=O)C1=C2O` (stereo not shown) [Tetra Acetyl Minocycline, Acetic acid 3,10-diacetoxy-2-acetylcarbamoyl-4,7-bis-dimethylamino-12-hydroxy-11-oxo-5,5a,6,11-tetrahydro-naphthacen-1-yl ester] the binge ethanol consumption [1] was “reduction of binge ethanol consumption”.

For `CN(C)c1cc(NC(=O)CNC(C)(C)C)c(O)c2c1C[C@H]1C[C@H]3[C@H](N(C)C)C(O)=C(C(N)=O)C(=O)[C@@]3(O)C(O)=C1C2=O` [Tigecycline], the “efficacy against AUD traits” value (AUD traits) is listed as “effective”, the “DID ethanol consumption / tigecycline efficacy, sterilized vs not” value (DID ethanol consumption) is listed as “No significant difference” and the DID consumption (DID consumption) is listed as “reduced DID consumption”.
